This note sets out measurements from US6683054B1, “Use of melagatran” (AstraZeneca AB, priority 1999, dated 2004).

This assay deals with paw oedema. The experiment in a line: Carrageenan-induced paw oedema in rats (foot volume by water plethysmograph). The conditions noted are these: for % Inhibition after sub-plantar injection, 2 hours after / % Inhibition after sub-plantar injection, 4 hours after: Table 1; for % Inhibition after sub-plantar injection, 2 hours after: 2 hours after carrageenan; for % Inhibition after sub-plantar injection, 4 hours after: 4 hours after carrageenan. The assay is classed as in vivo, rat. From the text: Groups of five male Charles River CD rats in the weight range 180 to 240 g were used. On their arrival, rats were housed in controlled environment rooms and fed a standard diet for at least one week before use.
Rats were starved overnight before the test, although water was given ad libitum. A mark was made on the ankle joint of each rat, the day before the test, to indicate where the foot volume was to be measured.
Compounds were made up in the appropriate vehicle for dosing via either the subcutaneous (s.c.), intravenous (i.v.) or oral (p.o.) routes. Melagatran was dosed in water (20 μmol/kg) when given p.o., and in saline, and in cyclodextrin (40%), when given s.c. (0.7 to 2 μmol/kg). Drugs were administered in a dose volume of 5 mL/kg body weight for p.o. dosing or 1 to 2 mL/kg body weight for s.c. dosing. Control rats received the equivalent volume of vehicle.
A 1% solution of carrageenan in saline was prepared the day prior to the test. The carrageenan was suspended in saline and stirred vigorously on a magnetic stirrer for one hour. It was then stored at 4° C. until required. Thirty minutes after dosing, each rat was injected s.c. in the plantar region of the left hind foot with 0.1 mL of 1% carrageenan.
To reduce both discomfort to the rat and variability in the test, rats were housed on wood chip bedding in solid bottom cages. The rats had access to a solution of 5% glucose throughout the duration of the test.
The plethysmograph was calibrated using blocks of 2 mL and 4 mL mass before the first, and after the last, measurement at each time point.
Foot volumes were measured before dosing and up to 6 hours after the sub-plantar injection of carrageenan. The increase in foot volume for each rat was calculated using the difference between the individual foot volume at time zero, and at the various time points. The inhibition afforded by a treatment was expressed as a percentage inhibition of the mean absolute increase in foot volume in treated animals compared to control animals. Indomethacin at 10 mg/kg p.o. was always included as an internal standard. If indomethacin gave less than 30% inhibition at 4 h then the test was considered invalid.
(Carrageenan injected into the paw causes an acute inflammation.)

Where [1] appears, read: Table 2, 2 μmol/kg s.c. in cyclodextrin.
[2] abbreviates: Table 2, 20 μmol/kg p.o. in water.
Where [3] appears, read: Table 3, 2 μmol/kg s.c. in saline.
[4] abbreviates: Table 4, 0.7 μmol/kg s.c. in saline.
Setting [5] is: Table 4, 1.4 μmol/kg s.c. in saline.
The mark [6] stands for this setting: Table 4, 2.0 μmol/kg s.c. in saline.

For the compound `COc1ccc2c(c1)c(CC(=O)O)c(C)n2C(=O)c1ccc(Cl)cc1` [Indomethacin, reference compound], where the note is “10 mg/kg p.o.”, the “% Inhibition after sub-plantar injection, 2 hours after” value (“% Inhibition … 2 hours after” below) worked out at 43% and the “% Inhibition after sub-plantar injection, 4 hours after” value (from here on “% Inhibition … 4 hours after”) is listed as 50%. For the setting “Table 2, 10 mg/kg p.o.”, the “% Inhibition after 1 hour” value is on record as −5%, the “% Inhibition after 2 hours” value was 50%, the “% Inhibition after 3 hours” value is on record as 39% and the “% Inhibition after 4 hours” value came out at 12%. Besides, where the note is “Table 3, 10 mg/kg p.o.”, the “% Inhibition after 1 hour” value turned out to be 15%, the “% Inhibition after 2 hours” value was 2%, the “% Inhibition after 3 hours” value is reported as 29% and the “% Inhibition after 4 hours” value is listed as 18%.
For `CC(C)Cc1ccc(C(C)C(=O)O)cc1` (stereo not shown) [Ibuprofen, reference compound], where the note is “10 mg/kg p.o.”, the “% Inhibition … 2 hours after” value came out at 22% and the “% Inhibition … 4 hours after” value was 26%.
On to `N=C(N)c1ccc(CNC(=O)[C@@H]2CCN2C(=O)[C@H](NCC(=O)O)C2CCCCC2)cc1` [Melagatran, HOOC—CH2—(R)Cgl-Aze-Pab-H], for which the “% Inhibition after 1 hour” value reads like this: under setting [1], 29%; under setting [2], 14%; under setting [3], 39%; under setting [4], 39%; under setting [5], 65%; under setting [6], 76%. Also, the “% Inhibition after 2 hours” value is 13% under setting [1]; 17% under setting [2]; 8% under setting [3]; 9% under setting [4]; 5% under setting [5]; 17% under setting [6]. Also, the “% Inhibition after 3 hours” value reads like this: under setting [1], 3%; under setting [2], −14%; under setting [3], 2%; under setting [4], 16%; under setting [5], 7%; under setting [6], 19%. Besides, the “% Inhibition after 4 hours” value reads like this: under setting [1], 13%; under setting [2], −2%; under setting [3], −8%. In addition, the “% Inhibition after 1.5 hours” value under setting [4] is recorded as −1%, the “% Inhibition after 1.5 hours” value under setting [5] is 40% and the “% Inhibition after 1.5 hours” value under setting [6] turned out to be 41%. For the setting “in saline, 2 μmol/kg s.c., after 1 h”, the “inhibition of the oedema” value stood at 39%. Besides, the “inhibition of paw oedema, dose and time dependence (in words)” value (in saline, 0.7, 1.4 and 2 μmol/kg s.c., 1 to 3 hours) was “inhibited paw oedema in both a dose dependent, and time dependent, manner”. Further, the “inhibiting paw oedema (in words)” value (orally 20 μmol/kg in water, 30 minutes prior to carrageenan, up to 6 h post dosing) is “ineffective”.
On to `C[C@@H]1C[C@H]2[C@@H]3CCC4=CC(=O)C=C[C@]4(C)[C@@]3(F)[C@@H](O)C[C@]2(C)[C@@]1(O)C(=O)CO` [Dexamethasone, reference compound], for which the “% Inhibition … 2 hours after” value (0.03 mg/kg p.o.) was found to be 47% and the “% Inhibition … 2 hours after” value (0.3 mg/kg p.o.) amounted to 51%. Further, the “% Inhibition … 4 hours after” value (0.03 mg/kg p.o.) worked out at 74% and the “% Inhibition … 4 hours after” value (0.3 mg/kg p.o.) is 96%.
